Assay [1] relates to Erigeron canadensis. Nature of the assay: Herbicidal activity against compound-resistant Conyza canadensis (horseweed) isolate 2 under greenhouse condition at 1.25 kg ae/ha measured 14 days post treatment relative to control. It counts as functional.
In assay [2] the test system is Erigeron canadensis. The experiment in a line: Herbicidal activity against compound-resistant Conyza canadensis (horseweed) isolate 2 under greenhouse condition at 0.84 kg ae/ha measured 14 days post treatment relative to control. The class given is functional.
The subject of assay [3] is Erigeron canadensis. Nature of the assay: Herbicidal activity against compound-resistant Conyza canadensis (horseweed) isolate 2 under greenhouse condition at 0.84 kg ae/ha measured 21 days post treatment relative to control. The class given is functional.
The test system of assay [4] is Erigeron canadensis. Nature of the assay: Herbicidal activity against compound-resistant Conyza canadensis (horseweed) isolate 2 under greenhouse condition at 0.45 kg ae/ha measured 21 days post treatment relative to control. It counts as functional.
Assay [5] concerns Erigeron canadensis. The experiment in a line: Herbicidal activity against compound-resistant Conyza canadensis (horseweed) isolate 2 under greenhouse condition at 1.68 kg ae/ha measured 14 days post treatment relative to control. It counts as functional.
The test system of assay [6] is Erigeron canadensis. The experiment in a line: Herbicidal activity against compound-sensitive Conyza canadensis (horseweed) under greenhouse condition at 2.52 kg ae/ha measured 7 days post treatment relative to control. It counts as functional.
Assay [7] deals with Erigeron canadensis. The experiment in a line: Herbicidal activity against compound-resistant Conyza canadensis (horseweed) isolate 1 under greenhouse condition at 3.36 kg ae/ha measured 14 days post treatment relative to control. It counts as functional.
Assay [8] deals with Erigeron canadensis. The experiment in a line: Herbicidal activity against compound-resistant Conyza canadensis (horseweed) isolate 1 under greenhouse condition at 0.45 kg ae/ha measured 14 days post treatment relative to control. The class given is functional.
Assay [9] relates to Erigeron canadensis. Nature of the assay: Herbicidal activity against compound-resistant Conyza canadensis (horseweed) isolate 1 under greenhouse condition at 1.68 kg ae/ha measured 7 days post treatment relative to control. The class given is functional.
The subject of assay [10] is Erigeron canadensis. Nature of the assay: Herbicidal activity against compound-sensitive Conyza canadensis (horseweed) under greenhouse condition at 9 kg ae/ha measured 14 days post treatment relative to control. The class given is functional.
For assay [11], the system named is Erigeron canadensis. Nature of the assay: Herbicidal activity against compound-sensitive Conyza canadensis (horseweed) under greenhouse condition at 1.68 kg ae/ha measured 14 days post treatment relative to control. It counts as functional.
The test system of assay [12] is Erigeron canadensis. The experiment in a line: Herbicidal activity against compound-resistant Conyza canadensis (horseweed) isolate 1 under greenhouse condition at 2.52 kg ae/ha measured 14 days post treatment relative to control. It counts as functional.
Assay [13] has as its system Erigeron canadensis. The experiment in a line: Herbicidal activity against compound-sensitive Conyza canadensis (horseweed) under greenhouse condition at 1.25 kg ae/ha measured 21 days post treatment relative to control. It counts as functional.
Assay [14] relates to Erigeron canadensis. The experiment in a line: Herbicidal activity against compound-sensitive Conyza canadensis (horseweed) under greenhouse condition assessed as fresh weight at 1.68 kg ae/ha measured 21 days post treatment relative to untreated control.
Assay [15] has as its system Erigeron canadensis. The experiment in a line: Herbicidal activity against compound-resistant Conyza canadensis (horseweed) isolate 2 under greenhouse condition assessed as fresh weight at 2.52 kg ae/ha measured 21 days post treatment relative to untreated control.

In the case of `O=C(O)CNCP(=O)(O)O` [GLYPHOSATE], the Activity in the assay with Erigeron canadensis [1] amounted to 15%; in the assay on Erigeron canadensis [2] it was 14%; in the assay with Erigeron canadensis [3], 24%; in the assay on Erigeron canadensis [4] it was 20%; with Erigeron canadensis [5], 44%; with Erigeron canadensis [6], 83%. The Activity in the assay with Erigeron canadensis [7] stood at 58%; in the assay with Erigeron canadensis [8], 8%; in the assay with Erigeron canadensis [9], 40%; in the assay on Erigeron canadensis [10] it was 98%; in the assay with Erigeron canadensis [11], 98%; in the assay with Erigeron canadensis [12] it was 45%. The compound further yielded an Activity with Erigeron canadensis [13] of 90%. For the same compound, the “level, % of control” value in the assay with Erigeron canadensis [14] is given as 1%; with Erigeron canadensis [15], 24%.

The record behind these values is ChEMBL document CHEMBL3045777, “Response of selected horseweed (Conyza canadensis (L.) Cronq.) populations to glyphosate” (2004).
